In brackets after ≈: the same amount, converted by molar mass.
Legend:
Assay type in all cases: functional
Staphylococcus aureus [1] = assay: Antimicrobial activity against Staphylococcus aureus ATCC 29213 at 100 ug/ml after 24 to 48 hr by agar diffusion method; conditions: read-out: DIZ
Staphylococcus aureus [2] = assay: Antimicrobial activity against Staphylococcus aureus ATCC 29213 after 24 hr by broth dilution method; conditions: ATCC 29213, 24 h
Pseudomonas aeruginosa [3] = assay: Antimicrobial activity against Pseudomonas aeruginosa ATCC […] after 24 hr by broth dilution method
Candida albicans [4] = assay: Antimicrobial activity against Candida albicans ATCC 10231 by broth dilution method
Nakaseomyces glabratus [5] = assay: Antimicrobial activity against Candida glabrata ATCC 10233 at 100 ug/ml after 24 to 48 hr by agar diffusion method; conditions: read-out: DIZ
Pseudomonas aeruginosa [6] = assay: Antimicrobial activity against Pseudomonas aeruginosa ATCC […] at 100 ug/ml after 24 to 48 hr by agar diffusion method; conditions: read-out: DIZ
Bacillus subtilis [7] = assay: Antimicrobial activity against Bacillus subtilis ATCC […] at 100 ug/ml after 24 to 48 hr by agar diffusion method; conditions: read-out: DIZ
Candida albicans [8] = assay: Antimicrobial activity against Candida albicans ATCC 10231 at 100 ug/ml after 24 to 48 hr by agar diffusion method; conditions: read-out: DIZ
Escherichia coli [9] = assay: Antimicrobial activity against Escherichia coli ATCC 25922 after 24 hr by broth dilution method; conditions: ATCC 25922, 24 h
Nakaseomyces glabratus [10] = assay: Antimicrobial activity against Candida glabrata ATCC 10233 by broth dilution method
Escherichia coli [11] = assay: Antimicrobial activity against Escherichia coli ATCC 25922 at 100 ug/ml after 24 to 48 hr by agar diffusion method; conditions: read-out: DIZ
Bacillus subtilis [12] = assay: Antimicrobial activity against Bacillus subtilis ATCC […] after 24 hr by broth dilution method
Pseudomonas aeruginosa [13] = assay: Antimicrobial activity against Pseudomonas aeruginosa ATCC […] at 50 ug/ml after 24 to 48 hr by agar diffusion method; conditions: read-out: DIZ
Staphylococcus aureus [14] = assay: Antimicrobial activity against Staphylococcus aureus ATCC 29213 at 50 ug/ml after 24 to 48 hr by agar diffusion method; conditions: read-out: DIZ
Bacillus subtilis [15] = assay: Antimicrobial activity against Bacillus subtilis ATCC […] at 50 ug/ml after 24 to 48 hr by agar diffusion method; conditions: read-out: DIZ
Escherichia coli [16] = assay: Antimicrobial activity against Escherichia coli ATCC 25922 at 50 ug/ml after 24 to 48 hr by agar diffusion method; conditions: read-out: DIZ

## CCCN(CCC)Cc1cccc(/C=N\NC(=O)c2ccncc2)c1OCC
Staphylococcus aureus [1]
  zone of inhibition at 100 µg/mL: 22 mm
Staphylococcus aureus [2]
  MIC: 25 µg/mL (≈ 65.4 µM)
  MIC50: 6.4 µg/mL (≈ 16.7 µM)
Pseudomonas aeruginosa [3]
  MIC: 12.5 µg/mL (≈ 32.7 µM)
  MIC50: 6.4 µg/mL (≈ 16.7 µM)
Candida albicans [4]
  MFC: 50 µg/mL (≈ 131 µM)
  MIC: 25 µg/mL (≈ 65.4 µM)
  MIC50: 12.8 µg/mL (≈ 33.5 µM)
Nakaseomyces glabratus [5]
  zone of inhibition at 100 µg/mL: 15 mm
Pseudomonas aeruginosa [6]
  zone of inhibition at 100 µg/mL: 18 mm
Bacillus subtilis [7]
  zone of inhibition at 100 µg/mL: 21 mm
Candida albicans [8]
  zone of inhibition at 100 µg/mL: 15 mm
Escherichia coli [9]
  MIC: 12.5 µg/mL (≈ 32.7 µM)
  MIC50: 6.4 µg/mL (≈ 16.7 µM)
Nakaseomyces glabratus [10]
  MFC: 100 µg/mL (≈ 261 µM)
  MIC: 12.5 µg/mL (≈ 32.7 µM)
  MIC50: 12.8 µg/mL (≈ 33.5 µM)
Escherichia coli [11]
  zone of inhibition at 100 µg/mL: 22 mm
Bacillus subtilis [12]
  MIC: 25 µg/mL (≈ 65.4 µM)
  MIC50: 12.8 µg/mL (≈ 33.5 µM)

## NYSTATIN
Candida albicans [4]
  MFC: 12.5 µg/mL
  MIC: 6.25 µg/mL
  MIC50: 3.2 µg/mL
Nakaseomyces glabratus [10]
  MFC: 25 µg/mL
  MIC: 12.5 µg/mL
  MIC50: 6.4 µg/mL

## CC1(C)S[C@@H]2[C@H](NC(=O)[C@H](N)c3ccc(O)cc3)C(=O)N2[C@H]1C(=O)O [AMOXICILLIN]
Pseudomonas aeruginosa [13]
  zone of inhibition at 50 µg/mL: 21 mm
Staphylococcus aureus [2]
  MIC: 3.12 µg/mL (≈ 8.54 µM)
  MIC50: 1.62 µg/mL (≈ 4.43 µM)
Pseudomonas aeruginosa [3]
  MIC: 6.25 µg/mL (≈ 17.1 µM)
  MIC50: 3.2 µg/mL (≈ 8.76 µM)
Staphylococcus aureus [14]
  zone of inhibition at 50 µg/mL: 30 mm
Escherichia coli [9]
  MIC: 3.12 µg/mL (≈ 8.54 µM)
  MIC50: 1.6 µg/mL (≈ 4.38 µM)
Bacillus subtilis [15]
  zone of inhibition at 50 µg/mL: 25 mm
Bacillus subtilis [12]
  MIC: 6.25 µg/mL (≈ 17.1 µM)
  MIC50: 3.2 µg/mL (≈ 8.76 µM)
Escherichia coli [16]
  zone of inhibition at 50 µg/mL: 30 mm

## CCOc1c(/C=N\NC(=O)c2ccncc2)cccc1CN(c1ccccc1)c1ccccc1
Staphylococcus aureus [1]
  zone of inhibition at 100 µg/mL: 31 mm
Staphylococcus aureus [2]
  MIC: 6.25 µg/mL (≈ 13.9 µM)
  MIC50: 3.2 µg/mL (≈ 7.1 µM)
Pseudomonas aeruginosa [3]
  MIC: 12.5 µg/mL (≈ 27.7 µM)
  MIC50: 6.4 µg/mL (≈ 14.2 µM)
Candida albicans [4]
  MFC: 25 µg/mL (≈ 55.5 µM)
  MIC: 12.5 µg/mL (≈ 27.7 µM)
  MIC50: 6.4 µg/mL (≈ 14.2 µM)
Nakaseomyces glabratus [5]
  zone of inhibition at 100 µg/mL: 22 mm
Pseudomonas aeruginosa [6]
  zone of inhibition at 100 µg/mL: 22 mm
Bacillus subtilis [7]
  zone of inhibition at 100 µg/mL: 26 mm
Candida albicans [8]
  zone of inhibition at 100 µg/mL: 21 mm
Escherichia coli [9]
  MIC: 6.25 µg/mL (≈ 13.9 µM)
  MIC50: 3.2 µg/mL (≈ 7.1 µM)
Nakaseomyces glabratus [10]
  MFC: 50 µg/mL (≈ 111 µM)
  MIC: 12.5 µg/mL (≈ 27.7 µM)
  MIC50: 12.8 µg/mL (≈ 28.4 µM)
Escherichia coli [11]
  zone of inhibition at 100 µg/mL: 32 mm
Bacillus subtilis [12]
  MIC: 12.5 µg/mL (≈ 27.7 µM)
  MIC50: 6.4 µg/mL (≈ 14.2 µM)

## CCOc1c(/C=N\NC(=O)c2ccncc2)cccc1CN1CCOCC1
Staphylococcus aureus [1]
  zone of inhibition at 100 µg/mL: 32 mm
Staphylococcus aureus [2]
  MIC: 6.25 µg/mL (≈ 17 µM)
  MIC50: 3.2 µg/mL (≈ 8.69 µM)
Pseudomonas aeruginosa [3]
  MIC: 12.5 µg/mL (≈ 33.9 µM)
  MIC50: 6.4 µg/mL (≈ 17.4 µM)
Candida albicans [4]
  MFC: 25 µg/mL (≈ 67.9 µM)
  MIC: 12.5 µg/mL (≈ 33.9 µM)
  MIC50: 6.4 µg/mL (≈ 17.4 µM)
Nakaseomyces glabratus [5]
  zone of inhibition at 100 µg/mL: 21 mm
Pseudomonas aeruginosa [6]
  zone of inhibition at 100 µg/mL: 22 mm
Bacillus subtilis [7]
  zone of inhibition at 100 µg/mL: 27 mm
Candida albicans [8]
  zone of inhibition at 100 µg/mL: 21 mm
Escherichia coli [9]
  MIC: 6.25 µg/mL (≈ 17 µM)
  MIC50: 3.2 µg/mL (≈ 8.69 µM)
Nakaseomyces glabratus [10]
  MFC: 50 µg/mL (≈ 136 µM)
  MIC: 12.5 µg/mL (≈ 33.9 µM)
  MIC50: 12.8 µg/mL (≈ 34.7 µM)
Escherichia coli [11]
  zone of inhibition at 100 µg/mL: 31 mm
Bacillus subtilis [12]
  MIC: 12.5 µg/mL (≈ 33.9 µM)
  MIC50: 6.4 µg/mL (≈ 17.4 µM)

## CCOc1ccccc1/C=N\NC(=O)c1ccncc1
Staphylococcus aureus [1]
  zone of inhibition at 100 µg/mL: 19 mm
Staphylococcus aureus [2]
  MIC: 25 µg/mL (≈ 92.8 µM)
  MIC50: 12.8 µg/mL (≈ 47.5 µM)
Pseudomonas aeruginosa [3]
  MIC: 25 µg/mL (≈ 92.8 µM)
  MIC50: 12.8 µg/mL (≈ 47.5 µM)
Candida albicans [4]
  MFC: 50 µg/mL (≈ 186 µM)
  MIC: 50 µg/mL (≈ 186 µM)
  MIC50: 25.6 µg/mL (≈ 95.1 µM)
Nakaseomyces glabratus [5]
  zone of inhibition at 100 µg/mL: 11 mm
Pseudomonas aeruginosa [6]
  zone of inhibition at 100 µg/mL: 14 mm
Bacillus subtilis [7]
  zone of inhibition at 100 µg/mL: 15 mm
Candida albicans [8]
  zone of inhibition at 100 µg/mL: 13 mm
Escherichia coli [9]
  MIC: 50 µg/mL (≈ 186 µM)
  MIC50: 25.6 µg/mL (≈ 95.1 µM)
Nakaseomyces glabratus [10]
  MFC: 100 µg/mL (≈ 371 µM)
  MIC: 25 µg/mL (≈ 92.8 µM)
  MIC50: 25.6 µg/mL (≈ 95.1 µM)
Escherichia coli [11]
  zone of inhibition at 100 µg/mL: 18 mm
Bacillus subtilis [12]
  MIC: 50 µg/mL (≈ 186 µM)
  MIC50: 25.6 µg/mL (≈ 95.1 µM)

Reference: ChEMBL document CHEMBL3046083, “Synthesis, characterization and antimicrobial evaluation of novel derivatives of isoniazid” (2012)
